Source: PubChem BioAssay AID1963964 (Molecular Pharmacology Branch, DTP, NCI, 2024)

Tested on: 997726-040-R-J2-PDC tumor spheroids, viability
Assay: Anticancer human tumor 997726-040-R-J2-PDC patient-derived squamous cell lung carcinoma cell line growth inhibition [PI3K]
Conditions: spheroids with HUVEC and MSC; for IC50: curve of first compound; for viability, T/C: stronger effect = lower value
Summary of the method: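 Multi-cell spheroids combine tumor cells with HUVEC and human MSCs, treated with targeted agents alone or with inavolisib, alpelisib, duvelisib or copanlisib. Concentrations fall in half-log steps from at or near clinical Cmax, or from 10 microM where Cmax is unknown; viability read-out.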

[1] = second compound 0.00316 µM, first compound 0.0316 µM
[2] = second compound 0.00316 µM, first compound 0.1 µM
[3] = second compound 0.00316 µM, first compound 0.316 µM
[4] = second compound 0.00316 µM, first compound 1 µM
[5] = second compound 0.00316 µM, first compound 3.16 µM
[6] = second compound 0.00316 µM, first compound 10 µM
[7] = second compound 0.01 µM, first compound 0.0316 µM
[8] = second compound 0.01 µM, first compound 0.1 µM
[9] = second compound 0.01 µM, first compound 0.316 µM
[10] = second compound 0.01 µM, first compound 1 µM
[11] = second compound 0.01 µM, first compound 3.16 µM
[12] = second compound 0.01 µM, first compound 10 µM
[13] = second compound 0.0316 µM, first compound 0.0316 µM
[14] = second compound 0.0316 µM, first compound 0.1 µM
[15] = second compound 0.0316 µM, first compound 0.316 µM
[16] = second compound 0.0316 µM, first compound 1 µM
[17] = second compound 0.0316 µM, first compound 3.16 µM
[18] = second compound 0.0316 µM, first compound 10 µM
[19] = second compound 0.1 µM, first compound 0.0316 µM
[20] = second compound 0.1 µM, first compound 0.1 µM
[21] = second compound 0.1 µM, first compound 0.316 µM
[22] = second compound 0.1 µM, first compound 1 µM
[23] = second compound 0.1 µM, first compound 3.16 µM
[24] = second compound 0.1 µM, first compound 10 µM
[25] = second compound 0.316 µM, first compound 0.0316 µM
[26] = second compound 0.316 µM, first compound 0.1 µM
[27] = second compound 0.316 µM, first compound 0.316 µM
[28] = second compound 0.316 µM, first compound 1 µM
[29] = second compound 0.316 µM, first compound 3.16 µM
[30] = second compound 0.316 µM, first compound 10 µM
[31] = second compound 1 µM, first compound 0.0316 µM
[32] = second compound 1 µM, first compound 0.1 µM
[33] = second compound 1 µM, first compound 0.316 µM
[34] = second compound 1 µM, first compound 1 µM
[35] = second compound 1 µM, first compound 3.16 µM
[36] = second compound 1 µM, first compound 10 µM
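Further: spheroids exposed to compounds for seven days before readout.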

Compound: CC1(C)CCC(CN2CCN(c3ccc(C(=O)NS(=O)(=O)c4ccc(NCC5CCOCC5)c([N+](=O)[O-])c4)c(Oc4cnc5[nH]ccc5c4)c3)CC2)=C(c2ccc(Cl)cc2)C1 + COc1c(OCCCN2CCOCC2)ccc2c3n(c(=NC(=O)c4cnc(N)nc4)nc12)CCN3
- IC50 (second compound 0.00316 µM): 6890 nM
- IC50 (second compound 0.01 µM): 4200 nM
- IC50 (second compound 0.0316 µM): < 31.6 nM
- IC50 (second compound 0.1 µM): < 31.6 nM
- IC50 (second compound 0.316 µM): < 31.6 nM
- IC50 (second compound 1 µM): < 31.6 nM
- viability, T/C [1]: 75.4%
- viability, T/C [2]: 77.4%
- viability, T/C [3]: 74.3%
- viability, T/C [4]: 81.1%
- viability, T/C [5]: 78.2%
- viability, T/C [6]: 36.9%
- viability, T/C [7]: 62%
- viability, T/C [8]: 64.6%
- viability, T/C [9]: 68.4%
- viability, T/C [10]: 60.7%
- viability, T/C [11]: 57.4%
- viability, T/C [12]: 28.9%
- viability, T/C [13]: 35.3%
- viability, T/C [14]: 36.5%
- viability, T/C [15]: 37.8%
- viability, T/C [16]: 37.7%
- viability, T/C [17]: 34.3%
- viability, T/C [18]: 21.2%
- viability, T/C [19]: 23.1%
- viability, T/C [20]: 22.9%
- viability, T/C [21]: 21.8%
- viability, T/C [22]: 23%
- viability, T/C [23]: 20.6%
- viability, T/C [24]: 9.14%
- viability, T/C [25]: 4.52%
- viability, T/C [26]: 6.09%
- viability, T/C [27]: 3.55%
- viability, T/C [28]: 3.55%
- viability, T/C [29]: 3.34%
- viability, T/C [30]: 2.27%
- viability, T/C [31]: 1.34%
- viability, T/C [32]: 1.27%
- viability, T/C [33]: 0.77%
- viability, T/C [34]: 0.81%
- viability, T/C [35]: 1.49%
- viability, T/C [36]: 1.38%

Compound: C[C@@H](NC(=O)c1ncnc(N)c1Cl)c1ncc(C(=O)Nc2cc(C(F)(F)F)c(Cl)cn2)s1 + COc1c(OCCCN2CCOCC2)ccc2c3n(c(=NC(=O)c4cnc(N)nc4)nc12)CCN3
- IC50 (second compound 0.00316 µM): > 10000 nM
- IC50 (second compound 0.01 µM): > 10000 nM
- IC50 (second compound 0.0316 µM): < 31.6 nM
- IC50 (second compound 0.1 µM): < 31.6 nM
- IC50 (second compound 0.316 µM): < 31.6 nM
- IC50 (second compound 1 µM): < 31.6 nM
- viability, T/C [1]: 79.8%
- viability, T/C [2]: 104%
- viability, T/C [3]: 93.6%
- viability, T/C [4]: 96.8%
- viability, T/C [5]: 86%
- viability, T/C [6]: 57.2%
- viability, T/C [7]: 64.1%
- viability, T/C [8]: 71.6%
- viability, T/C [9]: 66.7%
- viability, T/C [10]: 68.9%
- viability, T/C [11]: 58.2%
- viability, T/C [12]: 54.8%
- viability, T/C [13]: 44%
- viability, T/C [14]: 42.9%
- viability, T/C [15]: 45.7%
- viability, T/C [16]: 47.9%
- viability, T/C [17]: 39.6%
- viability, T/C [18]: 34.1%
- viability, T/C [19]: 26.7%
- viability, T/C [20]: 25.6%
- viability, T/C [21]: 27.1%
- viability, T/C [22]: 29.2%
- viability, T/C [23]: 25.6%
- viability, T/C [24]: 19.2%
- viability, T/C [25]: 6.28%
- viability, T/C [26]: 6%
- viability, T/C [27]: 7.45%
- viability, T/C [28]: 7.98%
- viability, T/C [29]: 5.89%
- viability, T/C [30]: 3.91%
- viability, T/C [31]: 2.28%
- viability, T/C [32]: 1.55%
- viability, T/C [33]: 1.77%
- viability, T/C [34]: 1.89%
- viability, T/C [35]: 1.41%
- viability, T/C [36]: 0.66%

Compound: Cn1ncnc1[C@H]1c2n[nH]c(=O)c3cc(F)cc(c23)N[C@@H]1c1ccc(F)cc1 + COc1c(OCCCN2CCOCC2)ccc2c3n(c(=NC(=O)c4cnc(N)nc4)nc12)CCN3
- IC50 (second compound 0.00316 µM): > 100 nM
- IC50 (second compound 0.01 µM): > 100 nM
- IC50 (second compound 0.0316 µM): < 0.316 nM
- IC50 (second compound 0.1 µM): < 0.316 nM
- IC50 (second compound 0.316 µM): < 0.316 nM
- IC50 (second compound 1 µM): < 0.316 nM
- viability, T/C (second compound 0.00316 µM, first compound 0.000316 µM): 76.4%
- viability, T/C (second compound 0.00316 µM, first compound 0.001 µM): 77%
- viability, T/C (second compound 0.00316 µM, first compound 0.00316 µM): 75.6%
- viability, T/C (second compound 0.00316 µM, first compound 0.01 µM): 82.9%
- viability, T/C [1]: 77.6%
- viability, T/C [2]: 70.5%
- viability, T/C (second compound 0.01 µM, first compound 0.000316 µM): 52%
- viability, T/C (second compound 0.01 µM, first compound 0.001 µM): 56.6%
- viability, T/C (second compound 0.01 µM, first compound 0.00316 µM): 61.1%
- viability, T/C (second compound 0.01 µM, first compound 0.01 µM): 54.8%
- viability, T/C [7]: 64.2%
- viability, T/C [8]: 58.1%
- viability, T/C (second compound 0.0316 µM, first compound 0.000316 µM): 33.7%
- viability, T/C (second compound 0.0316 µM, first compound 0.001 µM): 35.3%
- viability, T/C (second compound 0.0316 µM, first compound 0.00316 µM): 33.7%
- viability, T/C (second compound 0.0316 µM, first compound 0.01 µM): 37.1%
- viability, T/C [13]: 34.1%
- viability, T/C [14]: 36.5%
- viability, T/C (second compound 0.1 µM, first compound 0.000316 µM): 25.1%
- viability, T/C (second compound 0.1 µM, first compound 0.001 µM): 22.2%
- viability, T/C (second compound 0.1 µM, first compound 0.00316 µM): 26.5%
- viability, T/C (second compound 0.1 µM, first compound 0.01 µM): 23.1%
- viability, T/C [19]: 23.2%
- viability, T/C [20]: 22.6%
- viability, T/C (second compound 0.316 µM, first compound 0.000316 µM): 5.23%
- viability, T/C (second compound 0.316 µM, first compound 0.001 µM): 5.9%
- viability, T/C (second compound 0.316 µM, first compound 0.00316 µM): 5.66%
- viability, T/C (second compound 0.316 µM, first compound 0.01 µM): 5.44%
- viability, T/C [25]: 5.95%
- viability, T/C [26]: 5.09%
- viability, T/C (second compound 1 µM, first compound 0.000316 µM): 1.25%
- viability, T/C (second compound 1 µM, first compound 0.001 µM): 1.22%
- viability, T/C (second compound 1 µM, first compound 0.00316 µM): 1.38%
- viability, T/C (second compound 1 µM, first compound 0.01 µM): 1.16%
- viability, T/C [31]: 1.33%
- viability, T/C [32]: 1.04%
